Measurements taken from patent US20220409727A1, “Metal Complexes Bearing Bisstyryl-Bipyridine Ligand and Their Use as Photosensitizer Agent in One and Two-Photon Photodynamic Therapy” (Paris Sciences et Lettres, priority 2019, published 2022).
Read-outs that look alike come from different tables or passages of the source.

How the values were obtained:
[1] = Emission measurement in CH3CN; format: physicochemical; conditions: room temperature, excitation at 355 nm
Description: The absorption of the samples was measured with a SpectraMax M2 Spectrometer (Molecular Devices). The emission was measured by irradiation of the sample in fluorescence quartz cuvettes (width 1 cm) using a NT342B Nd-YAG pumped optical parametric oscillator (Ekspla) at 355 nm. Luminescence was focused and collected at right angle to the excitation pathway and directed to a Princeton Instruments Acton SP-2300i monochromator. As a detector, a XPI-Max 4 CCD camera (Princeton Instruments) has been used.

[2] = Luminescence quantum yield measurements; format: physicochemical; design: key: fraction, relative to [Ru(bipy)3]Cl2 reference in CH3CN (Φem=5.9%); conditions: CH3CN, room temperature, excitation at 355 nm
Description: For the determination of the luminescence quantum yield, the samples were prepared in an CH3CN solution with an absorbance of 0.1 at 355 nm. This solution was irradiated in fluorescence quartz cuvettes (width 1 cm) using a NT342B Nd-YAG pumped optical parametric oscillator (Ekspla) at 355 nm. The emission signal was focused and collected at right angle to the excitation pathway and directed to a Princeton Instruments Acton SP-2300i monochromator. As a detector a XPI-Max 4 CCD camera (Princeton Instruments) has been used. The luminescence quantum yields were determined by comparison with the reference [Ru(bipy)3]Cl2 in CH3CN (Φem=5.9%) (Nakamaru, K., 1982) applying the following formula:
Φem, sample=Φem, reference*(Freference/Fsample)*(Isample/Ireference)*(nsample/nreference)^2
Φem=luminescence quantum yield, F=fraction of light absorbed, I=integrated emission intensities, n=refractive index, A=absorbance of the sample at irradiation wavelength.

[3] = Luminescence lifetime measurements; format: physicochemical; conditions: excitation at 355 nm; for τ/ns air (Lifetime): air saturated CH3CN; for τ/ns degassed (Lifetime): degassed CH3CN
Description: For the determination of the lifetimes, the samples were prepared in an air saturated and in a degassed CH3CN solution with an absorbance of 0.2 at 355 nm. This solution was irradiated in fluorescence quartz cuvettes (width 1 cm) using a NT342B Nd-YAG pumped optical parametric oscillator (Ekspla) at 355 nm. The emission signal was focused and collected at right angle to the excitation pathway and directed to a Princeton Instruments Acton SP-2300i monochromator. As a detector a R928 photomultiplier tube (Hamamatsu) has been used.

[4] = Singlet oxygen measurement, direct evaluation (1O2 luminescence at 1270 nm); format: physicochemical
Description: The samples were prepared in an air saturated CH3CN or D2O solution with an absorbance of 0.2 at 450 nm. This solution was irradiated in fluorescence quartz cuvettes (width 1 cm) using a mounted M450LP1 LED (Thorlabs) whose irradiation, centered at 450 nm, has been focused with aspheric condenser lenses. The intensity of the irradiation has been varied using a T-Cube LED Driver (Thorlabs) and measured with an optical power and energy meter. The emission signal was focused and collected at right angle to the excitation pathway and directed to a Princeton Instruments Acton SP-2300i monochromator. A longpass glass filter was placed in front of the monochromator entrance slit to cut off light at wavelengths shorter than 850 nm. As a detector an EO-817L IR-sensitive liquid nitrogen cooled germanium diode detector (North Coast Scientific Corp.) has been used. The singlet oxygen luminesce at 1270 nm was measured by recording spectra from 1100 to 1400 nm. For the data analysis, the singlet oxygen luminescence peaks at different irradiation intensities were integrated. The resulting areas were plotted against the percentage of the irradiation intensity and the slope of the linear regression calculated. The absorbance of the sample was corrected with an absorbance correction factor. As reference for the measurement Rose Bengal (Φ=76%) (Kochevar, I. E. and Redmond, R. W., 2000) was used and the singlet oxygen quantum yields were calculated using the following formula:
Φsample=Φreference*(Ssample/Sreference)*(Ireference/Isample)
Φ=singlet oxygen quantum yield, S=slope of the linear regression of the plot of the areas of the singlet oxygen luminescence peaks against the irradiation intensity, I=absorbance correction factor, […] of the irradiation source, A=absorbance of the sample at irradiation wavelength.

[5] = Singlet oxygen measurement, indirect evaluation (RNO absorbance); format: physicochemical; conditions: indirect
Description: For the measurement in CH3CN: The samples were prepared in an air-saturated CH3CN solution containing the complex with an absorbance of 0.2 at the irradiation wavelength, N,N-dimethyl-4-nitrosoaniline aniline (RNO, 24 μM) and imidazole (12 mM). For the measurement in PBS buffer: The samples were prepared in an air-saturated PBS solution containing the complex with an absorbance of 0.1 at the irradiation wavelength, N,N-dimethyl-4-nitrosoaniline aniline (RNO, 20 μM) and histidine (10 mM). The samples were irradiated on 96 well plates with an Atlas Photonics LUMOS BIO irradiator for different times. The absorbance of the samples was measured during these time intervals with a SpectraMax M2 Microplate Reader (Molecular Devices). The difference in absorbance (A0−A) at 420 nm for the CH3CN solution or at 440 nm a PBS buffer solution was calculated and plotted against the irradiation times. From the plot the slope of the linear regression was calculated as well as the absorbance correction factor determined. The singlet oxygen quantum yields were calculated using the same formulas as used for the direct evaluation.

[6] = system: human cervical carcinoma (HeLa) cells; test: (Photo-)cytotoxicity on 2D cell monolayers, resazurin assay, HeLa; format: cell-based; conditions: for PI (480 nm): dark vs 480 nm (10 min, 3.1 J/cm^2); for PI (540 nm): dark vs 540 nm (40 min, 9.5 J/cm^2)
From the text: Before an experiment, the cells were passaged three times.

[7] = system: mouse colon carcinoma (CT-26) cells
[8] = system: human glioblastoma astrocytoma (U373) cells
Description: (§1) The human glioblastoma astrocytoma (U373) cell line was cultured in MEM medium supplemented with 10% FBS, 1% NEAA (non-essential amino-acids) and 1% penicillin/streptomycin. […] The human retinal epithelial cells (RPE-1, non-cancerous cells immortalized with hTERT) were cultured in DMEM-F12 medium supplemented with 10% FBS and 1% penicillin/streptomycin. All cell lines were obtained from the American Type Culture Collection (ATCC) and cultured at 37° C. and 5% CO2. Before an experiment, the cells were passaged three times.
(§2) The cytotoxicity of the compounds was assessed by measuring cell viability using a fluorometric resazurin assay. The cultivated cells were seeded in triplicates in 96 well plates with a density of 4000 cells per well in 100 μL of media. After 24 h, the medium was removed and the cells were treated with increasing concentrations of the compound diluted in cell media achieving a total volume of 200 μL. The cells were incubated with the compound for 4 h. After this time, the media was removed and replaced with 200 μL of fresh medium. For the phototoxicity studies, the cells were exposed to light with an Atlas Photonics LUMOS BIO irradiator. Each well was constantly illuminated with either a 480 nm or 540 nm irradiation. During this time, the temperature was maintained constantly at 37° C. The cells were grown in the incubator for additional 44 h. For the determination of the dark cytotoxicity, the cells were not irradiated and after the medium exchange directly incubated for 44 h. After this time, the medium was replaced with fresh medium containing resazurin with a final concentration of 0.2 mg/mL. After 4 h incubation, the amount of the fluorescent product resorufin was determined upon excitation at 540 nm and measurement its emission at 590 nm using a SpectraMax M2 Microplate Reader (Molecular Devices).
(§3) The obtained data was analyzed with the GraphPad Prism software.

[9] = system: human glioblastoma astrocytoma (U373) cells; test: (Photo-)cytotoxicity on 2D cell monolayers, resazurin assay, U373; conditions: for PI (480 nm): U373, dark vs 480 nm (10 min, 3.1 J/cm^2); for PI (540 nm): U373, dark vs 540 nm (40 min, 9.5 J/cm^2); for IC50: compounds 1-3 as chloride salts
Description: as §1, §2, §3

[10] = system: non-cancerous retinal pigment epithelium (RPE-1) cells; test: (Photo-)cytotoxicity on 2D cell monolayers, resazurin assay, RPE-1; conditions: for PI (480 nm): RPE-1, dark vs 480 nm (10 min, 3.1 J/cm^2); for PI (540 nm): RPE-1, dark vs 540 nm (40 min, 9.5 J/cm^2);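 as to all read-outs here: cells exposed to compound 4 h, medium exchanged, then irradiated or kept dark, 44 h further growth, viability by resorufin fluorescence (ex 540 nm, em 590 nm)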
Description: as §1, §2, §3

[11] = system: mouse colon carcinoma (CT-26) cells; test: (Photo-)cytotoxicity on 2D cell monolayers, resazurin assay, CT-26; conditions: for PI (480 nm): CT-26, dark vs 480 nm (10 min, 3.1 J/cm^2); for PI (540 nm): CT-26, dark vs 540 nm (40 min, 9.5 J/cm^2); for IC50: compounds 1-3 as chloride salts
[12] = dark, 4 h incubation, compounds 1-3 as chloride salts, read-out: IC50 dark
[13] = read-out: IC50 480 nm (10 min, 3.1 J/cm^2), irradiation 480 nm (10 min, 3.1 J/cm^2), compounds 1-3 as chloride salts
[14] = read-out: IC50 540 nm (40 min, 9.5 J/cm^2), irradiation 540 nm (40 min, 9.5 J/cm^2), compounds 1-3 as chloride salts
[15] = read-out: IC50 480 nm (10 min, 3.1 J/cm^2), U373, irradiation 480 nm (10 min, 3.1 J/cm^2)
[16] = read-out: IC50 dark, U373, dark, 4 h incubation
[17] = read-out: IC50 540 nm (40 min, 9.5 J/cm^2), CT-26, irradiation 540 nm (40 min, 9.5 J/cm^2)
[18] = read-out: IC50 dark, CT-26, dark, 4 h incubation

| Compound | λem/nm (Emission maximum) [1] | ϕem (Luminescence Quantum Yield) [2] | τ/ns air (Lifetime) [3] | τ/ns degassed (Lifetime) [3] | Singlet oxygen quantum yield, direct 450 nm CH3CN [4] | Singlet oxygen quantum yield, indirect 450 nm CH3CN [5] | Singlet oxygen quantum yield, indirect 450 nm PBS [5] | Singlet oxygen quantum yield, indirect 540 nm CH3CN [5] | Singlet oxygen quantum yield, indirect 540 nm PBS [5] | PI (480 nm) [6] | PI (540 nm) [6] | IC50 [6, 12] | IC50 [6, 13] | IC50 [6, 14] | IC50 [7] | IC50 [8] | PI (480 nm) [9] | PI (540 nm) [9] | IC50 [9, 15] | IC50 [9, 16] | further results |
| --- | --- | --- | --- | --- | --- | --- | --- | --- | --- | --- | --- | --- | --- | --- | --- | --- | --- | --- | --- | --- | --- |
| CN(C)c1ccc(/C=C/c2ccnc(-c3cc(/C=C/c4ccc(N(C)C)cc4)ccn3)c2)cc1.CN(C)c1ccc(/C=C/c2ccnc(-c3cc(/C=C/c4ccc(N(C)C)cc4)ccn3)c2)cc1.CN(C)c1ccc(/C=C/c2ccnc(-c3cc(/C=C/c4ccc(N(C)C)cc4)ccn3)c2)cc1.F[P-](F)(F)(F)(F)F.F[P-](F)(F)(F)(F)F.[Ru+2] [Compound 2, [Ru((E,E′)-4,4′-Bis[p-(N,N-dimethylamino)styryl]-2,2′-bipyridine)3][PF6]2] | 709 nm | <0.001 | 48 ns | 222 ns | 18% | 25% | 3% | 16% | 1% | >3.4 | >1.9 | > 100 µM | 29.4 ± 8.3 µM | 52.3 ± 6.1 µM | 42.6 ± 3.8 µM | 61.4 ± 5.6 µM | >2.0 | >1.6 | 49.1 ± 6 µM | > 100 µM | PI (480 nm) [10]: >2.6; PI (540 nm) [10]: >2.0; PI (480 nm) [11]: >2.3; PI (540 nm) [11]: >1.6; IC50 [11, 17]: 62.5 ± 8.2 µM; IC50 [11, 18]: > 100 µM |
| COc1ccc(/C=C/c2ccnc(-c3cc(/C=C/c4ccc(OC)cc4)ccn3)c2)cc1.COc1ccc(/C=C/c2ccnc(-c3cc(/C=C/c4ccc(OC)cc4)ccn3)c2)cc1.COc1ccc(/C=C/c2ccnc(-c3cc(/C=C/c4ccc(OC)cc4)ccn3)c2)cc1.F[P-](F)(F)(F)(F)F.F[P-](F)(F)(F)(F)F.[Ru+2] [Compound 3, [Ru((E,E′)-4,4′-Bis[p-methoxystyryl]-2,2′-bipyridine)3][PF6]2] | 682 nm | 0.011 | 76 ns | 338 ns | 52% | 48% | 6% | 49% | 5% | >6.5 | >8.8 | > 100 µM | 15.3 ± 1.4 µM | 11.3 ± 2.2 µM | 19.3 ± 2.1 µM | 51.3 ± 3.4 µM | >2.4 | >1.9 | 41 ± 3.5 µM | > 100 µM | PI (480 nm) [10]: >1.9; PI (540 nm) [10]: >2.2; PI (480 nm) [11]: >5.2; PI (540 nm) [11]: >4.3; IC50 [11, 17]: 23 ± 2.6 µM; IC50 [11, 18]: > 100 µM |
